Results published in PMC2966298 (Journal of medicinal chemistry, 2010).
“Also recorded” adds a separate entry of the source. Each block holds one compound with its values, some of them ahead of it.

What was measured:
15-hLO-1 [1] = target: T1, 15-hLO-1 (Homo sapiens, UniProt P16050); experiment: Reversibility of inhibition; format: biochemical; details: 50 μM inhibitor, 10 min incubation, then 2 h dialysis
T1 sequence (P16050 1-662): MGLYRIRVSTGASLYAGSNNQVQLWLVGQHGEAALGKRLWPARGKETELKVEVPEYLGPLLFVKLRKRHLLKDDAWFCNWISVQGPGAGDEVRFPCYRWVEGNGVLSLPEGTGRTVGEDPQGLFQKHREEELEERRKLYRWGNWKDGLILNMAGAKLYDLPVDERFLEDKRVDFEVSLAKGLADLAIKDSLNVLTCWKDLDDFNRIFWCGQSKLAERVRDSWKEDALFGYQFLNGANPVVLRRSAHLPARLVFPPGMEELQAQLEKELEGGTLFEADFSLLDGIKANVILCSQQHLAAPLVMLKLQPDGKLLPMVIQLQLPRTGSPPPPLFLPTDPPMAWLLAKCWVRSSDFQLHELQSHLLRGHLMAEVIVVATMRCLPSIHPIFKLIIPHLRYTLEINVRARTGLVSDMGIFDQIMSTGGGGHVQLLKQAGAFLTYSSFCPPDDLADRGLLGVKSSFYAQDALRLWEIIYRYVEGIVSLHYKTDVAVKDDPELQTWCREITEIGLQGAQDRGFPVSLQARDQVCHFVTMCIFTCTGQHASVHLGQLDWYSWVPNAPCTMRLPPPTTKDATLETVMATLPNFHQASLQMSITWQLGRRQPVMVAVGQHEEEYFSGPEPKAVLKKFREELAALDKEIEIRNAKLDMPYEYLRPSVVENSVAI

[2] = target: T2, Human reticulocyte 15-lipoxygenase-1 (15-hLO-1) (Homo sapiens, UniProt P16050); experiment: Lipoxygenase UV-Vis assay; details: for fold loss in activity against 15-hLO-1 relative to lead 5: compared with compound 5 (19 nM)
T2 sequence (P16050 1-662): T1 sequence (P16050 1-662)

[3] = Solubility as noted during biochemical characterization; format: physicochemical; details: noted where Ki^app could not be obtained accurately
15-hLO-1 [4] = target: T1, 15-hLO-1; details: cited from earlier work
15-hLO-1 [5] = target: T1, 15-hLO-1; experiment: Steady-state inhibition kinetics; details: replot of 1/Vmax vs inhibitor; AA substrate, 0.01% Triton X-100

SMILES: O=C(OCC#CCSc1nnc(-c2ccc(F)cc2)o1)c1ccc(F)cc1 [Analogue 47]
IC50 [2]: < 10 nM

SMILES: O=C(OCC#CCSc1nnc(-c2cccc3ccccc23)s1)c1cccs1 [Analogue 58]
solubility (in words) [3]: noticeably less soluble; also recorded: low solubility

SMILES: O=C(OCC#CCSc1nnc(-c2cc3ccccc3cc2O)o1)c1ccc(F)cc1 [Analogue 53]
solubility (in words) [3]: low solubility

SMILES: O=C(CCC#CCSc1nnc(-c2cccc3ccccc23)o1)c1ccccc1 [Analogue 67]
solubility (in words) [3]: reduced solubility; also recorded: low solubility

SMILES: O=C(OCc1ccc(CSc2nnc(-c3cccc4ccccc34)o2)cc1)c1ccc(F)cc1 [Analogue 62]
IC50 [2]: > 100000 nM

SMILES: Fc1ccc(COCC#CCSc2nnc(-c3cccc4ccccc34)o2)cc1 [Analogue 66]
activity against 15-hLO-1 (in words) [2]: complete loss in activity

SMILES: COc1ccc(-c2oc3cc(OC)c(OC)c(OC)c3c(=O)c2OC)cc1OC [hexamethoxyflavone]
IC50 (15-hLO-1 [4]): 50000 nM

SMILES: O=C(OCC#CCSc1nnc(-c2cccc3ccccc23)o1)c1c[nH]cn1 [Analogue 16]
Ki’ (dissociation from the secondary site) (15-hLO-1 [5]): 8100 ± 900 nM
fold loss in activity against 15-hLO-1 relative to lead 5 [2]: approximately 70 fold

Now from value to compound:

reversibility of inhibition (15-hLO-1 [1]): reversible
SMILES: O=C(OCC#CCSc1nnc(-c2cccc3ccccc23)o1)c1ccccc1F [Analogue 25]

IC50 [2]: 2000 nM
fold loss in activity against 15-hLO-1 relative to lead 5 [2]: 100 fold
SMILES: O=C(NCC#CCSc1nnc(-c2cccc3ccccc23)o1)c1cccs1 [Analogue 56]

IC50 [2]: 1300 nM
SMILES: O=C(OCC#CCNc1nnc(-c2cccc3ccccc23)o1)c1cccs1 [Analogue 60]
